Values of other authors, collected in patent US20080214876A1, “Process for Preparation of Pharmaceutically Pure Anhydrous Calcipotriol” (INSTYTUT FARMACEUTYCZNY, priority 2004, published 2008).

Assays:
[1] = test system: epidermal keratinocytes; settings: literature: Castelijins et al., Acta Derm. Venereol. 79, 111 (1999)
[2] = pharmaceutical formulations
[3] = test system: calcium metabolism; settings: rats; relative to calcitriol; Binderup, Bramm, Biochem. Pharmacol. 37, 889 (1988)

| Structure (SMILES) | activity in inhibiting undesirable proliferation of epidermal keratinocytes [1] | stability in some solutions [2] | weaker effect on calcium metabolism compared to calcitriol [3] |
| --- | --- | --- | --- |
| C=C1/C(=C\C=C2/CCC[C@]3(C)[C@@H]([C@H](C)/C=C/[C@@H](O)C4CC4)CC[C@@H]23)C[C@@H](O)C[C@@H]1O [calcipotriol, (1α,3β3,5Z,7E,22E,24S)-24-cyclopropyl-9,10-secochola-5,7,10(19),22-tetraene-1,3,24-triol] | strong activity | poor stability | 100-200 fold |
| C=C1/C(=C\C=C2/CCC[C@]3(C)[C@@H]([C@H](C)CCCC(C)(C)O)CC[C@@H]23)C[C@@H](O)C[C@@H]1O [calcitriol, 1,25-dihydroxycholecalciferol] | strong activity | – | – |
| C=C1/C(=C\C=C2/CCC[C@]3(C)[C@@H]([C@H](C)CC[C@@H](O)C(C)C)CC[C@@H]23)C[C@@H](O)C[C@@H]1O [tacalcitol, 1α,24R-dihydroxycholecalciferol] | strong activity | – | – |
